Results from ChEMBL document CHEMBL1201862, “PubChem BioAssay data set” (2004).
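Tested at 5 concentrations; 48 h exposure; 96-well plates; endpoints linearly interpolated, else capped at highest concentration. GI50 marks 50% less growth.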 The source made the active and inactive calls. No stated cut-off is given here; in the data, active = GI50 up to about 1.1 µM and inactive = higher.

Key:
Experiment in all cases: NCI anticancer screen, dose series, 48 h
TK-10 = tested on: TK-10
HCC 2998 = tested on: HCC 2998
SR = tested on: SR
ACHN = tested on: ACHN
K562 = tested on: K562
UACC-62 = tested on: UACC-62
RXF 393 = tested on: RXF 393
OVCAR-5 = tested on: OVCAR-5
MDA-MB-435 = tested on: MDA-MB-435
UO-31 = tested on: UO-31
NCI/ADR-RES = tested on: NCI/ADR-RES
NCI-H522 = tested on: NCI-H522
HT-29 = tested on: HT-29
SNB-19 = tested on: SNB-19
RPMI-8226 = tested on: RPMI-8226
BT-549 = tested on: BT-549
SW-620 = tested on: SW-620
DU-145 = tested on: DU-145
KM12 = tested on: KM12
A549 = tested on: A549
HOP-62 = tested on: HOP-62
M14 = tested on: M14
MDA-N = tested on: MDA-N
EKVX = tested on: EKVX
SK-MEL-5 = tested on: SK-MEL-5
OVCAR-8 = tested on: OVCAR-8
Malme-3M = tested on: Malme-3M
HCT-15 = tested on: HCT-15
PC-3 = tested on: PC-3
HCT-116 = tested on: HCT-116
UACC-257 = tested on: UACC-257
MOLT-4 = tested on: MOLT-4
MDA-MB-231 = tested on: MDA-MB-231
786-0 = tested on: 786-0
SK-MEL-28 = tested on: SK-MEL-28
SK-MEL-2 = tested on: SK-MEL-2
OVCAR-3 = tested on: OVCAR-3
NCI-H23 = tested on: NCI-H23
T47D = tested on: T47D
U-251 = tested on: U-251
CCRF-CEM = tested on: CCRF-CEM
NCI-H460 = tested on: NCI-H460
NCI-H226 = tested on: NCI-H226
IGROV-1 = tested on: IGROV-1
A498 = tested on: A498
HOP-92 = tested on: HOP-92
HL-60 = tested on: HL-60
SF-268 = tested on: SF-268
SN12C = tested on: SN12C
SF-295 = tested on: SF-295
LOX IMVI = tested on: LOX IMVI
Hs-578T = tested on: Hs-578T
SNB-75 = tested on: SNB-75
COLO 205 = tested on: COLO 205
OVCAR-4 = tested on: OVCAR-4
SK-OV-3 = tested on: SK-OV-3
MCF7 = tested on: MCF7
CAKI-1 = tested on: CAKI-1

**Q.** Which results are given for `Cc1cc(Cl)nc(NC(=O)CSc2ccc(Cl)cc2)n1`?
**A.** GI50 (TK-10): > 100 µM (inactive); GI50 (HCC 2998): > 100 µM (inactive); GI50 (SR): > 100 µM (inactive); GI50 (ACHN): > 100 µM (inactive); GI50 (K562): > 100 µM (inactive); GI50 (UACC-62): > 100 µM (inactive); GI50 (RXF 393): > 100 µM (inactive); GI50 (OVCAR-5): > 100 µM (inactive); GI50 (MDA-MB-435): > 100 µM (inactive); GI50 (UO-31): > 100 µM (inactive); GI50 (NCI/ADR-RES): > 100 µM (inactive); GI50 (NCI-H522): 95.7 µM (inactive); GI50 (HT-29): > 100 µM (inactive); GI50 (SNB-19): > 100 µM (inactive); GI50 (RPMI-8226): 38.6 µM (inactive); GI50 (BT-549): > 100 µM (inactive); GI50 (SW-620): > 100 µM (inactive); GI50 (DU-145): > 100 µM (inactive); GI50 (KM12): > 100 µM (inactive); GI50 (A549): > 100 µM (inactive); GI50 (HOP-62): 79.1 µM (inactive); GI50 (M14): > 100 µM (inactive); GI50 (MDA-N): > 100 µM (inactive); GI50 (EKVX): > 100 µM (inactive); GI50 (SK-MEL-5): > 100 µM (inactive); GI50 (OVCAR-8): > 100 µM (inactive); GI50 (Malme-3M): 64.7 µM (inactive); GI50 (HCT-15): > 100 µM; GI50 (PC-3): > 100 µM (inactive); GI50 (HCT-116): > 100 µM (inactive); GI50 (UACC-257): > 100 µM (inactive); GI50 (MOLT-4): > 100 µM (inactive); GI50 (MDA-MB-231): > 100 µM (inactive); GI50 (786-0): > 100 µM (inactive); GI50 (SK-MEL-28): > 100 µM (inactive); GI50 (SK-MEL-2): > 100 µM (inactive); GI50 (OVCAR-3): > 100 µM (inactive); GI50 (NCI-H23): > 100 µM (inactive); GI50 (T47D): > 100 µM (inactive); GI50 (U-251): > 100 µM (inactive); GI50 (CCRF-CEM): > 100 µM (inactive); GI50 (NCI-H460): > 100 µM (inactive); GI50 (NCI-H226): 22.1 µM (inactive); GI50 (IGROV-1): > 100 µM (inactive); GI50 (A498): 72.9 µM (inactive); GI50 (HOP-92): > 100 µM (inactive); GI50 (HL-60): > 100 µM (inactive); GI50 (SF-268): > 100 µM (inactive); GI50 (SN12C): > 100 µM (inactive); GI50 (SF-295): > 100 µM (inactive); GI50 (LOX IMVI): > 100 µM (inactive); GI50 (Hs-578T): 77.6 µM (inactive)

**Q.** What does the source list for `CC(O)(c1ccccc1)c1nccc2ccccc12` (configuration not stated)?
**A.** GI50 (TK-10): > 100 µM (inactive); GI50 (HCC 2998): > 100 µM (inactive); GI50 (ACHN): > 100 µM (inactive); GI50 (K562): 35.8 µM (inactive); GI50 (UACC-62): 50.6 µM (inactive); GI50 (RXF 393): > 100 µM (inactive); GI50 (OVCAR-5): 67.1 µM (inactive); GI50 (MDA-MB-435): 18.2 µM (inactive); GI50 (UO-31): 51.3 µM (inactive); GI50 (NCI/ADR-RES): 43.7 µM (inactive); GI50 (SNB-75): 53.7 µM (inactive); GI50 (NCI-H522): 50.5 µM (inactive); GI50 (HT-29): 74.3 µM (inactive); GI50 (SNB-19): > 100 µM (inactive); GI50 (COLO 205): 70.6 µM (inactive); GI50 (RPMI-8226): 37.3 µM (inactive); GI50 (BT-549): 56.1 µM (inactive); GI50 (OVCAR-4): 37.7 µM (inactive); GI50 (SW-620): 77.6 µM (inactive); GI50 (DU-145): > 100 µM (inactive); GI50 (KM12): 36.4 µM (inactive); GI50 (SK-OV-3): 96.6 µM (inactive); GI50 (A549): 87.3 µM (inactive); GI50 (HOP-62): > 100 µM (inactive); GI50 (M14): 74.5 µM (inactive); GI50 (MDA-N): 23.4 µM (inactive); GI50 (SK-MEL-5): 44.2 µM (inactive); GI50 (OVCAR-8): > 100 µM (inactive); GI50 (Malme-3M): 64.1 µM (inactive); GI50 (MCF7): 80.9 µM (inactive); GI50 (HCT-15): 53 µM; GI50 (PC-3): 22.6 µM (inactive); GI50 (HCT-116): 61.4 µM (inactive); GI50 (UACC-257): > 100 µM (inactive); GI50 (MOLT-4): 41.9 µM (inactive); GI50 (MDA-MB-231): 20.1 µM (inactive); GI50 (CAKI-1): > 100 µM (inactive); GI50 (786-0): > 100 µM (inactive); GI50 (SK-MEL-28): > 100 µM (inactive); GI50 (OVCAR-3): 57.9 µM (inactive); GI50 (NCI-H23): > 100 µM (inactive); GI50 (T47D): 68.1 µM (inactive); GI50 (U-251): 45.5 µM (inactive); GI50 (CCRF-CEM): 58.6 µM (inactive); GI50 (NCI-H460): 96.4 µM (inactive); GI50 (NCI-H226): 31.5 µM (inactive); GI50 (IGROV-1): 37.8 µM (inactive); GI50 (A498): 71.4 µM (inactive); GI50 (HOP-92): 22.4 µM (inactive); GI50 (HL-60): > 100 µM (inactive); GI50 (SF-268): 95.7 µM (inactive); GI50 (SN12C): > 100 µM (inactive); GI50 (SF-295): 55 µM (inactive); GI50 (LOX IMVI): 75.9 µM (inactive); GI50 (Hs-578T): 45.8 µM (inactive)
